Measurements published in PMC6236315 (Molecular Medicine Reports, 2018).
Structures can show the parent of a compound that is named as a salt.

Assays:
LAD2 mast cells [1] = assay: β-Hexosaminidase release; assay type: cell-based, human; details: 37°C
LAD2 mast cells [2] = assay: LL-37 internalization into LAD2 cells; assay type: cell-based, human; details: 37°C
[3] = chlorpromazine 2.5 µM, 30 min pre-treatment, then LL-37 5 µM, 40 min
[4] = genistein 10 µM, 30 min pre-treatment, then LL-37 5 µM, 40 min
[5] = pertussis toxin 250 ng/ml, 1 h pre-treatment, then LL-37 5 µM for 40 min

## CN(C)CCCN1c2ccccc2Sc2ccc(Cl)cc21 [chlorpromazine, Chlorpromazine hydrochloride]
LAD2 mast cells [1]; [3]
  effect on LL-37-induced degranulation (β-hexosaminidase release): inhibited degranulation
LAD2 mast cells [2]; [3]
  effect on LL-37 internalization (fluorescence intensity): suppressed LL-37 internalization

## O=C(N/N=C/c1ccc(O)c(O)c1)c1cc2ccccc2cc1O [dynasore, Dynasore]
LAD2 mast cells [1]; dynasore 10 µM, 30 min pre-treatment, then LL-37 5 µM, 40 min
  effect on LL-37-induced degranulation (β-hexosaminidase release): inhibited degranulation

## O=c1c(-c2ccc(O)cc2)coc2cc(O)cc(O)c12 [genistein]
LAD2 mast cells [1]; [4]
  effect on LL-37-induced degranulation (β-hexosaminidase release): did not affect
LAD2 mast cells [2]; [4]
  effect on LL-37 internalization (fluorescence intensity): did not affect

## pertussis toxin
LAD2 mast cells [1]; [5]
  effect on LL-37-induced degranulation (β-hexosaminidase release): significantly suppressed
LAD2 mast cells [2]; [5]
  effect on LL-37 internalization (fluorescence intensity): significantly suppressed
